Assay results from US11267826B2, “Penicillin-binding protein inhibitors” (priority 2017, dated 2022).

How the values were obtained:
E. coli K12 PBP1a/b = assay: Bocillin FL competition binding assay, PBP1a/1b combined; set-up: species or system Escherichia coli K12; settings: 15 min pre-incubation, PBP 1a/1b combined
Outline: (§1)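 E. coli K12 membrane extracts (100 µg protein) pre-incubated 15 min with compound (0.005–2,480 µg/mL) in pH 7 phosphate/350 mM NaCl, then labelled with Bocillin FL 30 min at 35°C; SDS-PAGE fluorescence (ex 450/em 520 nm), μg/mL reported. PBP1a/1b unresolved, reported combined.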

E. coli PBP2 = target: T1, E. coli PBP2 (Escherichia coli, UniProt P0AD65); assay: Bocillin FL competition binding assay, PBP2; set-up: species or system Escherichia coli K12; settings: 15 min pre-incubation
T1 construct: 100 μg's of total membrane protein extracts containing PBPs; endogenous in cells; host or cells: Escherichia coli K12, membrane protein fraction
Outline: as §1

S. aureus ATCC 29213 = assay: Broth microdilution MIC assay, S. aureus; format: cell-based; settings: Staphylococcus aureus, ATCC29213; broth microdilution, 16-20 hours at 37° C.; read-out: S. aureus 29213 MIC
Outline: (§2)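 Following CLSI procedures, compounds were serially diluted 2-fold and challenged with bacteria at 5×10^5 CFU/mL in Mueller-Hinton broth supplemented with divalent cations. After 16-20 hours at 37° C, the lowest concentration without visible growth was recorded as the MIC.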

[1] = test system: hyper-permeable E. coli 901C; assay: Broth microdilution MIC assay, hyper-permeable E. coli; format: cell-based; settings: Escherichia coli, read-out: E. coli 901C MIC
Outline: as §2

E. coli K12 PBP1b = target: T2, E. coli K12 PBP1b (Escherichia coli, UniProt P02919); assay: Competition binding assay using Bodipy-FL boronic acid probe (Example 125); settings: Bodipy-FL boronic acid probe (Example 125) 30 μM, 10 minutes pre-incubation, 10 minutes reaction
T2 construct: endogenous in cells; host or cells: Escherichia coli K12, membrane protein fraction
Protocol: Penicillin binding proteins were isolated from Escherichia coli K12 by growth of Escherichia coli K12 from a single colony in 4 L of Luria-Bertani (LB) broth at 35° C. and 250 rpm to an OD600 nm of 0.5. The cells were harvested by centrifugation at 7,000×g for 10 min. at 4° C. Cells were resuspended and washed in 50 mM potassium phosphate pH 7.5. The cells were re-suspended in sonication buffer [50 mM Tris-HCl pH 7.5, 1 mM MgCl2, 1 mM beta-mercaptoethanol, and 5 μg/mL DNAse I] and sonicated by 4 passes of 30 seconds at 45 W on ice. The sample was clarified by centrifugation at 3,000×g to remove cell debris and unbroken cells and supernatant containing the membrane proteins was retained. The membrane proteins including the PBPs were further purified from soluble constituents by an ultracentrifugation step at 100,000×g for 30 min. at 4° C. The membrane proteins are washed twice with 10 mM sodium phosphate pH 7, resuspended in a volume of 5 mL, quantitated by BCA assay, adjusted to […] and frozen at −80° C. until use.
The adapted Bocillin FL competition binding method described herein incorporates a 15 min. pre-incubation of test compound with isolated PBPs to attempt to balance the difference in mechanism of inhibition between beta-lactams (largely irreversible covalent bond to active site Serine) and the boron-containing PBP inhibitor test compounds (reversible covalent bond to active site Serine). Briefly, 50 μL reactions consisted of 100 μg's of total membrane protein extracts containing PBPs incubated with a dilution series of test compound ranging from 0.005 μg/mL to 2,480 μg/mL in 10 mM sodium phosphate pH7 containing 350 mM NaCl. Thirty minute reactions at 35° C. were initiated by addition of […] Bocillin FL, quenched by addition of SDS-PAGE loading buffer containing sodium dodecyl sulfate (SDS) and heated for 15 minutes at 95° C. to denature proteins in preparation for SDS-polyacrylamide gel electrophoresis. The Bocillin FL labeled PBPs are then separated by SDS-PAGE in Novex NuPage 10% Bis-Tris pre-cast gels (Invitrogen). The SDS-PAGE gel, post-electrophoresis, is then washed in water to remove excess SDS for 10 minutes at room temperature and placed on the scanning bed of a GE Healthcare/Amersham Biosciences Storm 860 fluorescence scanner. The excitation wavelength is in the blue spectrum at 450 nm and the emission at 520 nm is captured by the instrument. Effective PBP inhibitors are detected by a reduction in Bocillin FL labeling of the particular PBP over the dose range of test compound in a dose-responsive manner. High molecular weight PBP 1a/1b are not resolved by these gels, thus we report HMW PBP binding results in μg/mL for PBPs 1a/1b combined as well as for PBP2 and PBP3.
To determine the ability of boronic acid-based test PBP inhibitors to bind Penicillin Binding Proteins (PBPs), a competition binding assay using a Bodipy-FL-labeled boronic acid PBP inhibitor (Example 125) was adapted from the classical method used to assess PBP potency of beta-lactams using Bocillin-FL (fluorescently-labeled penicillin V). The method is identical to that described in Example I for the Bocillin-FL competition binding assay with the following exceptions, the Bodipy-FL boronic acid probe (Example 125) is used at a final concentration of 30 μM, pre-incubation time of test compound with PBP enzymes is 10 minutes and reaction time is set for 10 minutes and reactions are prepared for SDS-PAGE analysis by simply adding SDS-containing loading buffer. Representative results are shown in Table 5, where A represents a potency of >1000 μg/mL, B represents a potency between 64 and 1000 μg/mL inclusive, and C represents a potency of <64 μg/mL. NT=Not Tested.

E. coli PBP3 = target: T3, E. coli PBP3 (Escherichia coli, UniProt P0AD68); assay: Bocillin FL competition binding assay, PBP3; set-up: species or system Escherichia coli K12; settings: 15 min pre-incubation
T3 construct: 100 μg's of total membrane protein extracts containing PBPs; endogenous in cells; host or cells: Escherichia coli K12, membrane protein fraction
Outline: as §1

T2 sequence (P02919 whole entry): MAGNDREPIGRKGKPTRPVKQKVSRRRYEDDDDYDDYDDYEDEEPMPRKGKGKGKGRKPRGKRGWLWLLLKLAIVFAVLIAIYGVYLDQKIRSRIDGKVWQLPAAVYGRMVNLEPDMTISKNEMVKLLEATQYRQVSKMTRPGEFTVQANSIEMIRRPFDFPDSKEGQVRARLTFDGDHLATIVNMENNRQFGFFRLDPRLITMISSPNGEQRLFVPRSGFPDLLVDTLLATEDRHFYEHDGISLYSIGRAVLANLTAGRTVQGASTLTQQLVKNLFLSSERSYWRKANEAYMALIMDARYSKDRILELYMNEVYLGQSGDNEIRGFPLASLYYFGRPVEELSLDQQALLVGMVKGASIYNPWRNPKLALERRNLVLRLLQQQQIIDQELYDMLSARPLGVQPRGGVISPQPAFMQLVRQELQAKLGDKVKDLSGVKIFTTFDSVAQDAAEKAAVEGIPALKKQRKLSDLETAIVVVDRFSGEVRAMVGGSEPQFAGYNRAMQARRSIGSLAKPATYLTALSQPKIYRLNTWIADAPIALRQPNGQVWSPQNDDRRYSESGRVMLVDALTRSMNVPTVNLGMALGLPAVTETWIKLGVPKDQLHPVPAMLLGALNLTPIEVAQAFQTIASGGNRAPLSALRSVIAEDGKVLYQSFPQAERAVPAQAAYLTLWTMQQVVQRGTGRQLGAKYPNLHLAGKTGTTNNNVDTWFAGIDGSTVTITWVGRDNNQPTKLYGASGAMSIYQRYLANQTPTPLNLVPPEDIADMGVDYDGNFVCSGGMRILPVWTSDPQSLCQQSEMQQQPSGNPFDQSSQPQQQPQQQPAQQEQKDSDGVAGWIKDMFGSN
T3 sequence (P0AD68 1-577): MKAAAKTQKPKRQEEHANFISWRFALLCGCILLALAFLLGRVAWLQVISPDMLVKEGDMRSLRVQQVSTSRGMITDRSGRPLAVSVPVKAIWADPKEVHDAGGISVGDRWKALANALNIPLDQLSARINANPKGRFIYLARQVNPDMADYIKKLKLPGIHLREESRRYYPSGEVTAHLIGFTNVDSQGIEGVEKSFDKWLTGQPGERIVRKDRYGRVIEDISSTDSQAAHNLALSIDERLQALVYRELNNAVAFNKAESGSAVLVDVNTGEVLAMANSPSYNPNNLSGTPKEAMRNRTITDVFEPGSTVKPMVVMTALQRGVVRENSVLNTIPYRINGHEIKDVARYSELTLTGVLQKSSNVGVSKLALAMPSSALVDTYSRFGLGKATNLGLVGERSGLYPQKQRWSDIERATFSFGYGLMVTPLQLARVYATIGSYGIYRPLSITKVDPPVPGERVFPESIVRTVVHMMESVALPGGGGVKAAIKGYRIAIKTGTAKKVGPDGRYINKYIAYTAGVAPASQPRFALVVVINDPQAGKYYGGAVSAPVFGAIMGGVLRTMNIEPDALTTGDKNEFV
T1 sequence (P0AD65 whole entry): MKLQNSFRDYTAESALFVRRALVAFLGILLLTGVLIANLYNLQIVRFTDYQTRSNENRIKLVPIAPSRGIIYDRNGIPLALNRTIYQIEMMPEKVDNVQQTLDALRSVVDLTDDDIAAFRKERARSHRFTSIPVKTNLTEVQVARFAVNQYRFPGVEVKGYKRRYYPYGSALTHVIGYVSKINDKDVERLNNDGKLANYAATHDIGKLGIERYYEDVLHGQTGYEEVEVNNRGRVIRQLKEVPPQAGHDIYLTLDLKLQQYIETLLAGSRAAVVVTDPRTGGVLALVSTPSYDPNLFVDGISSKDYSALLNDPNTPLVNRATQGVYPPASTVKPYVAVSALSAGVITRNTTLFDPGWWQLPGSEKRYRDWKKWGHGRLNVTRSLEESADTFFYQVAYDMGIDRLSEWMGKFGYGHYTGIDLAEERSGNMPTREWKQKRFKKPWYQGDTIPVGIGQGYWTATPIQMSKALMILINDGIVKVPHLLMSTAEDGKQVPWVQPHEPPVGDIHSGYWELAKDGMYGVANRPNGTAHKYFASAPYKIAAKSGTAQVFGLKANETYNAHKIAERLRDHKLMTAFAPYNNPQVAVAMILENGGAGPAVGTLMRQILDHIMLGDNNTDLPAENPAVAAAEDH

Compound	E. coli K12 PBP1a/b Potency (E. coli K12 PBP1a/b)	E. coli PBP2 Potency (E. coli PBP2)	MIC (S. aureus ATCC 29213)	MIC [1]	E. coli K12 PBP1b Potency (E. coli K12 PBP1b)	E. coli PBP3 Potency (E. coli PBP3)
NC(=O)CO/N=C(\C(=O)N[C@H]1Cc2cccc(C(=O)O)c2OB1O)c1csc(N)n1 [Example 61, (R,Z)-3-(2-((2-amino-2-oxoethoxy)imino)-2-(2-aminothiazol-4-yl)acetamido)-2-hydroxy-3,4-dihydro-2H-benzo[e][1,2]oxaborinine-8-carboxylic Acid]	C (C represents a potency of <64 μg/mL)	B (B represents a potency between 64 and 1000 μg/mL inclusive)	64 to 128 µg/mL	< 64 µg/mL	C (C represents a potency of <64 μg/mL)	C (C represents a potency of <64 μg/mL)
Nc1nc(/C(=N/OCC2CCNCC2)C(=O)N[C@H]2Cc3cccc(C(=O)O)c3OB2O)cs1 [Example 52, (R,Z)-3-(2-(2-aminothiazol-4-yl)-2-((piperidin-4-ylmethoxy)imino)acetamido)-2-hydroxy-3,4-dihydro-2H-benzo[e][1,2]oxaborinine-8-carboxylic Acid]	A (A represents a potency of >1000 μg/mL)	A (A represents a potency of >1000 μg/mL)	> 128 µg/mL	< 64 µg/mL	B (B represents a potency between 64 and 1000 μg/mL inclusive)	A (A represents a potency of >1000 μg/mL)
CCO/N=C(\C(=O)N[C@H]1Cc2cccc(C(=O)O)c2OB1O)c1csc(N)n1 [Example 48, (R,Z)-3-(2-(2-aminothiazol-4-yl)-2-(ethoxyimino)acetamido)-2-hydroxy-3,4-dihydro-2H-benzo[e][1,2]oxaborinine-8-carboxylic Acid]	B (B represents a potency between 64 and 1000 μg/mL inclusive)	B (B represents a potency between 64 and 1000 μg/mL inclusive)	64 to 128 µg/mL	< 64 µg/mL	B (B represents a potency between 64 and 1000 μg/mL inclusive)	B (B represents a potency between 64 and 1000 μg/mL inclusive)
Nc1nc(/C(=N/OCC(=O)NC2CCNCC2)C(=O)N[C@H]2Cc3cccc(C(=O)O)c3OB2O)cs1 [Example 59, (R,Z)-3-(2-(2-aminothiazol-4-yl)-2-((2-oxo-2-(piperidin-4-ylamino)ethoxy)imino)acetamido)-2-hydroxy-3,4-dihydro-2H-benzo[e][1,2]oxaborinine-8-carboxylic Acid]	B (B represents a potency between 64 and 1000 μg/mL inclusive)	C (C represents a potency of <64 μg/mL)	> 128 µg/mL	< 64 µg/mL	B (B represents a potency between 64 and 1000 μg/mL inclusive)	C (C represents a potency of <64 μg/mL)
CC(C)(O/N=C(\C(=O)N[C@H]1Cc2cccc(C(=O)O)c2OB1O)c1csc(N)n1)C(=O)O [Example 68, (R,Z)-3-(2-(2-aminothiazol-4-yl)-2-(((2-carboxypropan-2-yl)oxy)imino)acetamido)-2-hydroxy-3,4-dihydro-2H-benzo[e][1,2]oxaborinine-8-carboxylic Acid]	C (C represents a potency of <64 μg/mL)	C (C represents a potency of <64 μg/mL)	> 128 µg/mL	< 64 µg/mL	C (C represents a potency of <64 μg/mL)	C (C represents a potency of <64 μg/mL)
